Data set [1] concerns the target T1, glucocerebrosidase (Gcase) (Homo sapiens, UniProt P04062).
T1 construct: micellar solution containing 10 nM GCase and 100 nM saposin C
T1 sequence (P04062 40-536): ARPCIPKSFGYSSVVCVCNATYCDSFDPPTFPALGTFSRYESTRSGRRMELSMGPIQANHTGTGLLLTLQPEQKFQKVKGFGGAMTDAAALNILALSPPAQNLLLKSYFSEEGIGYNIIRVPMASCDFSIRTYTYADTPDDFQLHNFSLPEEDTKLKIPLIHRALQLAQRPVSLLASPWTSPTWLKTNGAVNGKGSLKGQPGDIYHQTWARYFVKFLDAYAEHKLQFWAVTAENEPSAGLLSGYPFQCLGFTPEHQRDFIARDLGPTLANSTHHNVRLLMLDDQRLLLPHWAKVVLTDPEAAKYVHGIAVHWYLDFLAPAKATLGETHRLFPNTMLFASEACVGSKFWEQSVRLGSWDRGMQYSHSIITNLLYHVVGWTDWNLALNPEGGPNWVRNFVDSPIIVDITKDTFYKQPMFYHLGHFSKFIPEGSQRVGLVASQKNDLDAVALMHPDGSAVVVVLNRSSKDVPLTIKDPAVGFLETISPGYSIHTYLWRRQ
As to the kind of experiment: Glucocerebrosidase (Gcase) activation assay, 4-methylumbelliferyl-beta-D-glucopyranoside substrate, fluorescence readout. In kind it is biochemical. To be noted: for activation at 0.1 µM: test compound at 0.1 μM, read-out: Percent Gcase Activation, 0.1 μM Test Compound; for activation at 1 µM: test compound at 1.0 μM, read-out: Percent Gcase Activation, 1 μM Test Compound. In outline:
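Test compounds are first screened at 1.0 and 0.1 μM final, then titrated in 8 points (3-fold from 5 μM) against human GCase with saposin C in phosphatidylserine/triton X-100 micelles at pH 4.7. Reactions run 15 min at room temperature, with fluorescence read at 365/440 nm.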

Data set [2] is described as follows: Compound solubility in water. To be noted: water, Compound Solubility in Water.

In brackets after ≈: the same amount, converted by molar mass.

For orientation: solubility means the concentration that dissolves in the medium under given conditions. A higher solubility goes with much dissolved substance. `COc1cc(NC(=O)c2ccn3c(C)cc(C)nc23)ccc1-c1cnco1` [III-87]: in data set [1], the activation at 0.1 µM is > 20% and the activation at 1 µM lay within 30 to 60%. In data set [2], this compound showed a solubility of 0.1 µg/mL (≈ 0.276 µM).
Take `Cc1cc(C)n2ccc(C(=O)Nc3ccc4nc(C)sc4c3)c2n1` [III-88]: in data set [1], the activation at 0.1 µM is 10 to 20% and the activation at 1 µM is > 60%. This compound gave a solubility in data set [2] of 0.1 µg/mL (≈ 0.297 µM).
Take `CO[C@H]1CC[C@H](NC(=O)c2ccn3c(C)cc(C)nc23)CC1` [III-89]: in data set [1], the activation at 0.1 µM was < 10% and the activation at 1 µM was < 30%. The same compound displayed a solubility in data set [2] of 23.9 µg/mL (≈ 79.3 µM).
For `Cc1cc(C)n2ccc(C(=O)N[C@H]3CC[C@H](Oc4ncccn4)CC3)c2n1` [III-90], in data set [1], the activation at 0.1 µM was < 10% and the activation at 1 µM is < 30%. For the same compound, the concentration in solution in data set [2] (solubility) was 2.4 µg/mL (≈ 6.57 µM).
For `Cc1cc(C)n2ccc(C(=O)NC(C)(C)c3ccccc3)c2n1` [III-91], in data set [1], the activation at 0.1 µM was > 20% and the activation at 1 µM is > 60%. The solubility in data set [2] was 3 µg/mL (≈ 9.76 µM).
For the compound `Cc1cc(C)n2ccc(C(=O)NC3CCC(F)(F)CC3)c2n1` [III-92], in data set [1], the activation at 0.1 µM is < 10% and the activation at 1 µM is 30 to 60%. The same compound registered a solubility in data set [2] of 1.6 µg/mL (≈ 5.21 µM).
Regarding `Cc1cc(C)n2ccc(C(=O)N[C@H]3CC[C@H](OCC(C)(C)C)CC3)c2n1` [III-93], in data set [1], the activation at 0.1 µM is > 20% and the activation at 1 µM was > 60%. Also, the solubility in data set [2] worked out at 6.2 µg/mL (≈ 17.3 µM).
Regarding `Cc1cc(C)n2ccc(C(=O)N[C@H]3CC[C@@H](OCC(C)(C)C)CC3)c2n1` [III-94], in data set [1], the activation at 0.1 µM was > 20% and the activation at 1 µM is > 60%. Also, in data set [2], the solubility was 1.8 µg/mL (≈ 5.03 µM).
Consider `Cc1cc(C)n2ccc(C(=O)N[C@H]3CC[C@H](OCC4CC(F)(F)C4)CC3)c2n1` [III-95], for which, in data set [1], the activation at 0.1 µM was 10 to 20% and the activation at 1 µM is > 60%. This compound also showed a solubility in data set [2] of 3.1 µg/mL (≈ 7.92 µM).
Take `Cc1cc(C)n2ccc(C(=O)Nc3ccc4c(c3)C(Oc3cc(C)on3)CC4)c2n1` (stereo not drawn) [III-96]: in data set [1], the activation at 0.1 µM is > 20% and the activation at 1 µM was > 60%. This compound also displayed a solubility in data set [2] of 0.08 µg/mL (≈ 0.199 µM).
As for `COC1CCCCC1NC(=O)c1ccn2c(C)cc(C)nc12` (stereo not drawn) [III-98], in data set [1], the activation at 0.1 µM is < 10% and the activation at 1 µM was < 30%. This compound showed a solubility in data set [2] of 29.9 µg/mL (≈ 99.2 µM).
Regarding `CCO[C@H]1CC[C@H](NC(=O)c2ccn3c(C)cc(C)nc23)CC1` [III-99], in data set [1], the activation at 0.1 µM was < 10% and the activation at 1 µM was < 30%. The amount in solution in data set [2] (solubility) came to 30.5 µg/mL (≈ 96.7 µM).
In the case of `Cc1cc(C)n2ccc(C(=O)N[C@H]3CCCc4ccccc43)c2n1` [III-100], in data set [1], the activation at 0.1 µM was > 20% and the activation at 1 µM is > 60%. This compound gave a solubility in data set [2] of 0.7 µg/mL (≈ 2.19 µM).
Regarding `Cc1cc(C)n2ccc(C(=O)N[C@H]3CC[C@H](OC4CCC4)CC3)c2n1` [III-101], in data set [1], the activation at 0.1 µM is > 20% and the activation at 1 µM is > 60%. The solubility in data set [2] was determined as 8.5 µg/mL (≈ 24.9 µM).
For the compound `CCOCCO[C@H]1CC[C@H](NC(=O)c2ccn3c(C)cc(C)nc23)CC1` [III-102], in data set [1], the activation at 0.1 µM is < 10% and the activation at 1 µM was < 30%. Besides, the concentration in solution in data set [2] (solubility) came to 38.3 µg/mL (≈ 107 µM).
Consider `COCCOc1ccc2c(c1)C(NC(=O)c1ccn3c(C)cc(C)nc13)CC2` (stereo not drawn) [III-103], for which, in data set [1], the activation at 0.1 µM fell in the range of 10 to 20% and the activation at 1 µM is > 60%. This compound also returned a solubility in data set [2] of 11.8 µg/mL (≈ 31.1 µM).
As for `COCCOc1ccc2c(c1)C(NC(=O)c1ccn3c(C)cc(C)nc13)CCC2` (stereo not drawn) [III-104], in data set [1], the activation at 0.1 µM fell in the range of 10 to 20% and the activation at 1 µM was > 60%. Besides, the solubility in data set [2] is 5.8 µg/mL (≈ 14.7 µM).
Take `COCCOCCO[C@H]1CC[C@H](NC(=O)c2ccn3c(C)cc(C)nc23)CC1` [III-105]: in data set [1], the activation at 0.1 µM was < 10% and the activation at 1 µM was < 30%. The amount in solution in data set [2] (solubility) came to 47.3 µg/mL (≈ 121 µM).
With `Cc1cc(C)n2ccc(C(=O)N[C@H]3CC[C@H](OC(C)C)CC3)c2n1` [III-106], in data set [1], the activation at 0.1 µM fell in the range of 10 to 20% and the activation at 1 µM was > 60%. Besides, the concentration in solution in data set [2] (solubility) came to 10.4 µg/mL (≈ 31.6 µM).
Consider `COCCCO[C@H]1CC[C@H](NC(=O)c2ccn3c(C)cc(C)nc23)CC1` [III-107], for which, in data set [1], the activation at 0.1 µM was < 10% and the activation at 1 µM was < 30%. In addition, the concentration in solution in data set [2] (solubility) was 13.2 µg/mL (≈ 36.7 µM).
For `COc1cc(NC(=O)c2ccn3c(C)cc(C)nc23)ccc1-c1cocn1` [III-108], in data set [1], the activation at 0.1 µM is > 20% and the activation at 1 µM is > 60%. The concentration in solution in data set [2] (solubility) was 0.2 µg/mL (≈ 0.552 µM).

(Values after US11351173B2, “Substituted pyrrolo[1,2-a]pyrimidines and their use in the treatment of medical disorders” (Bial—R&D Investments, S.A., priority 2014, dated 2022).)
